The text below walks through data of patent US11066414B2, “Cot modulators and methods of use thereof” (Gilead Sciences, Inc., priority 2015, dated 2021).

One assay has as its system TNFα. Description: Cot Monocyte TNFα Cell Based Assay.
The target in another assay is Human Cot (Homo sapiens (Human), UniProt P41279). Description: High Throughput Cot Biochemical Assay. The following applies: Cot HTRF (TR-FRET KinEASE) biochemical assay, 400 μM ATP. (TR-FRET usually uses a lanthanide donor and a delayed reading to cut background.)
Sequence of Human Cot (P41279 30-397): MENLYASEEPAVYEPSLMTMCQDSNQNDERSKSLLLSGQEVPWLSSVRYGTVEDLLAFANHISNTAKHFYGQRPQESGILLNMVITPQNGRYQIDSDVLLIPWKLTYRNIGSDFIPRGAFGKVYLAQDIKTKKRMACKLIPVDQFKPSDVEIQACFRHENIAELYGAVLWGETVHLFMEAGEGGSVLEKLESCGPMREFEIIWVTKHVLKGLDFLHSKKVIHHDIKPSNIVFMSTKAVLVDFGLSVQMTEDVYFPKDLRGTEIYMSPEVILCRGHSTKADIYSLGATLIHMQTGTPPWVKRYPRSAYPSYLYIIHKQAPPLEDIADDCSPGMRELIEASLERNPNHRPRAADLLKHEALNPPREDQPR
The mark [1] stands for this setting: read-out: EC50 TNF, LPS-stimulated human monocytes, TNFα TR-FRET.
Setting [2] is: Homo sapiens, Monocyte, read-out: EC50 TNF, LPS-stimulated human monocytes, TNFα TR-FRET.

Structures are written as SMILES. Where two headings read alike, the source gives them in different places.

As for `COc1nccc2c([C@H](Nc3cc(C#N)c4ncc(C#N)c(NCC(C)(C)C(F)(F)F)c4c3)c3cn(C4(C)CC4)nn3)cccc12` [Example 819, (S)-6-(((1-methoxylsoquinolin-5-yl)(1-(1-methylcyclopropyl)-1H-1,2,3-triazol-4-yl)methyl)amino)-4-((3,3,3-trifluoro-2,2-dimethylpropyl)amino)quinoline-3,8-dicarbonitrile], in the assay with TNFα (setting [1]), the half-maximal effective concentration (EC50) (in general, the concentration at which the effect is half-maximal) stood at 28 nM. Further, the IC50 (in general, the concentration needed to halve the response being measured) on Human Cot (read-out: IC50 HTRF) worked out at 2 nM.

Consider `COc1nccc2c([C@H](Nc3cc(C#N)c4ncc(C#N)c(NCC(C)(C)C(F)(F)F)c4c3)c3cn(C45CC(C4)C5)nn3)cccc12` [Example 820, (S)-6-(((1-(bicyclo[1.1.1]pentan-1-yl)-1H-1,2,3-triazol-4-yl)(1-methoxylsoquinolin-5-yl)methyl)amino)-4-((3,3,3-trifluoro-2,2-dimethylpropyl)amino)quinoline-3,8-dicarbonitrile], for which the EC50 in the assay with TNFα (setting [1]) stood at 33 nM. Besides, the IC50 at Human Cot (read-out: IC50 HTRF) was found to be 3 nM.

In the case of `COc1nccc2c([C@H](Nc3cc(C#N)c4ncc(C#N)c(NCC(C)(C)C(F)(F)F)c4c3)c3cn(C4(C(F)F)CC4)nn3)cccc12` [Example 821], the half-maximal effective concentration (EC50) in the assay on TNFα (setting [1]) was 60 nM. Besides, the IC50 on Human Cot (read-out: IC50 HTRF) came out at 3 nM.

For the molecule `CC(C)(C)CNc1c(C#N)cnc2c(C#N)cc(N[C@@H](c3ccc4nccn4c3)c3cn(C4(C(F)(F)F)CC4)nn3)cc12` [Example 822, (S)-6-((imidazo[1,2-a]pyridin-6-yl(1-(1-(trifluoromethyl)cyclopropyl)-1H-1,2,3-triazol-4-yl)methyl)amino)-4-(neopentylamino)quinoline-3,8-dicarbonitrile], the EC50 in the assay with TNFα (setting [2]) is 687 nM. The same molecule came in with a half-maximal inhibitory concentration (IC50) against Human Cot (IC50 HTRF) of 10 nM.

In the case of `COc1nccc2c([C@H](Nc3cc(C#N)c4ncc(C#N)c(NCC(C)(C)C)c4c3)c3cn([C@@H](C)CF)nn3)cccc12` [Example 824, 6-(((S)-(1-((S)-1-fluoropropan-2-yl)-1H-1,2,3-triazol-4-yl)(1-methoxylsoquinolin-5-yl)methyl)amino)-4-(neopentylamino)quinoline-3,8-dicarbonitrile], the EC50 in the assay on TNFα (setting [1]) was found to be 59 nM. Also, the IC50 at Human Cot (read-out: IC50 HTRF) was determined as 5 nM.

As for `COc1nccc2c([C@H](Nc3cc(C#N)c4ncc(C#N)c(NCC(C)(C)C)c4c3)c3cn(C(CF)CF)nn3)cccc12` [Example 825, (S)-6-(((1-(1,3-difluoropropan-2-yl)-1H-1,2,3-triazol-4-yl)(1-methoxylsoquinolin-5-yl)methyl)amino)-4-(neopentylamino)quinoline-3,8-dicarbonitrile], in the assay on TNFα (setting [1]), the concentration for a half-maximal effect (EC50) was 113 nM. For the same molecule, on Human Cot (read-out: IC50 HTRF), the IC50 was 7 nM.

For `CC(C)(C)CNc1c(C#N)cnc2c(C#N)cc(N[C@@H](c3ccc(C#N)nc3)c3cn(C4(C(F)(F)F)CC4)nn3)cc12` [Example 826, (S)-6-(((6-cyanopyridin-3-yl)(1-(1-(trifluoromethyl)cyclopropyl)-1H-1,2,3-triazol-4-yl)methyl)amino)-4-(neopentylamino)quinoline-3,8-dicarbonitrile], the EC50 with TNFα (setting [2]) is 1000 nM. At Human Cot (IC50 HTRF), this molecule gave a half-inhibitory concentration (IC50) of 51 nM.

On to `Cc1nc(F)ccc1[C@H](Nc1cc(C#N)c2ncc(C#N)c(NCC(C)(C)C(F)(F)F)c2c1)c1cn(C(C)(C)C)nn1` [Example 827, (S)-6-(((1-(tert-butyl)-1H-1,2,3-triazol-4-yl)(6-fluoro-2-methylpyridin-3-yl)methyl)amino)-4-((3,3,3-trifluoro-2,2-dimethylpropyl)amino)quinoline-3,8-dicarbonitrile], for which the EC50 in the assay on TNFα (setting [2]) was 38 nM. Further, inhibition at Human Cot (IC50 HTRF) was half-maximal at 2 nM (IC50).

Turning to `Cc1ccc([C@H](Nc2cc(C#N)c3ncc(C#N)c(NCC(C)(C)C)c3c2)c2cn(C3(C(F)(F)F)CC3)nn2)cn1` [Example 828, (S)-6-(((6-methylpyridin-3-yl)(1-(1-(trifluoromethyl)cyclopropyl)-1H-1,2,3-triazol-4-yl)methyl)amino)-4-(neopentylamino)quinoline-3,8-dicarbonitrile], the concentration for a half-maximal effect (EC50) in the assay with TNFα (setting [2]) is 253 nM. Moreover, at Human Cot (IC50 HTRF), the concentration for half-maximal inhibition (IC50) was 22 nM.

On to `Cc1ccc([C@H](Nc2cc(C#N)c3ncc(C#N)c(NCC(C)(C)C)c3c2)c2cn(C3(C(F)F)CC3)nn2)c(C)n1` [Example 829, (S)-6-(((1-(1-(difluoromethyl)-cyclopropyl)-1H-1,2,3-triazol-4-yl)(2,6-dimethylpyridin-3-yl)methyl)amino)-4-(neopentylamino)quinoline-3,8-dicarbonitrile], for which the EC50 with TNFα (setting [2]) worked out at 66 nM. The same molecule had a 50% inhibitory concentration (IC50) against Human Cot (IC50 HTRF) of 4 nM.

As for `Cc1nc(C#N)ccc1[C@H](Nc1cc(C#N)c2ncc(C#N)c(NCC(C)(C)C)c2c1)c1cn(C2(C(F)(F)F)CC2)nn1` [Example 830, (S)-6-(((6-cyano-2-methylpyridin-3-yl)(1-(1-(trifluoromethyl)cyclopropyl)-1H-1,2,3-triazol-4-yl)methyl)amino)-4-(neopentylamino)quinoline-3,8-dicarbonitrile], the EC50 with TNFα (setting [2]) worked out at 384 nM. The same molecule registered an IC50 on Human Cot (IC50 HTRF) of 16 nM.

In the case of `Cc1nc(F)ccc1[C@H](Nc1cc(C#N)c2ncc(C#N)c(NCC3(C(F)(F)F)CCC3)c2c1)c1cn(C2(C(F)F)CC2)nn1` [Example 831, (S)-6-(((1-(1-(difluoromethyl)-cyclopropyl)-1H-1,2,3-triazol-4-yl)(6-fluoro-2-methylpyridin-3-yl)methyl)amino)-4-(((1-(trifluoromethyl)cyclobutyl)methyl)-amino)quinoline-3,8-dicarbonitrile], in the assay on TNFα (setting [2]), the EC50 amounted to 202 nM. The molecule further registered a half-inhibitory concentration (IC50) against Human Cot (IC50 HTRF) of 8 nM.

As for `Cc1nc(F)ccc1[C@H](Nc1cc(C#N)c2ncc(C#N)c(NCC(C)(C)C(F)(F)F)c2c1)c1cn(C2(C(F)F)CC2)nn1` [Example 832, (S)-6-(((1-(l-(difluoromethyl)-cyclopropyl)-1H-1,2,3-triazol-4-yl)(6-fluoro-2-methylpyridin-3-yl)methyl)amino)-4-((3,3,3-trifluoro-2,2-dimethylpropyl)amino)quinoline-3,8-dicarbonitrile], the half-maximal effective concentration (EC50) with TNFα (setting [1]) came out at 44 nM. Also, the half-maximal inhibitory concentration (IC50) at Human Cot (read-out: IC50 HTRF) came to 2 nM.

As to `Cc1nc(F)ccc1[C@H](Nc1cc(C#N)c2ncc(C#N)c(NCC(C)(C)C(F)(F)F)c2c1)c1cn(C23CC(C2)C3)nn1` [Example 833, (S)-6-(((1-(bicyclo[1.1.1]pentan-1-yl)-1H-1,2,3-triazol-4-yl)(6-fluoro-2-methylpyridin-3-yl)methyl)amino)-4-((3,3,3-trifluoro-2,2-dimethylpropyl)amino)quinoline-3,8-dicarbonitrile], the concentration for a half-maximal effect (EC50) in the assay on TNFα (setting [2]) was 22 nM. The same molecule registered an IC50 at Human Cot (IC50 HTRF) of 2 nM.

Take `Cc1nc(F)ccc1[C@H](Nc1cc(C#N)c2ncc(C#N)c(NCC(C)(C)C)c2c1)c1cn(CC(C)(F)F)nn1` [Example 836, (S)-6-(((1-(2,2-difluoropropyl)-1H-1,2,3-triazol-4-yl)(6-fluoro-2-methylpyridin-3-yl)methyl)amino)-4-(neopentylamino)quinoline-3,8-dicarbonitrile]: in the assay with TNFα (setting [2]), the 50% effective concentration (EC50) worked out at 52 nM. The same molecule returned a half-inhibitory concentration (IC50) against Human Cot (IC50 HTRF) of 4 nM.

Consider `CCC(F)(F)Cn1cc([C@@H](Nc2cc(C#N)c3ncc(C#N)c(NCC(C)(C)C)c3c2)c2ccc(F)nc2C)nn1` [Example 837, (S)-6-(((1-(2,2-difluorobutyl)-1H-1,2,3-triazol-4-yl)(6-fluoro-2-methylpyridin-3-yl)methyl)amino)-4-(neopentylamino)quinoline-3,8-dicarbonitrile], for which the EC50 in the assay with TNFα (setting [2]) came out at 121 nM. The molecule further yielded an IC50 at Human Cot (IC50 HTRF) of 7 nM.
